According to patent publication US6908902B2, “Treatment of neurological dysfunction comprising fructopyranose sulfamates and erythropoietin” (Ortho-McNeil Pharmaceutical, Inc., priority 2001, dated 2005):

Columns and labels:
Format in all cases: cell-based
Rat Hippocampal Cultures = assay: Neurite Outgrowth MAP2-FITC Assay for Rat Hippocampal Cells; details: one week in culture, mean of eight observations
Excerpt: (§1) Dissociated hippocampal and cortical cell cultures were established from embryonic Day 18 rat fetuses as previously described (Mattson et al., 1994). Briefly, fetuses were removed via cesarean section from pregnant rats (Sprague-Dawley) and anesthetized with halothane according to the AVMA Panel on Euthanasia. Fetuses were decapitated and the brains were removed and placed in HEPES-buffered Hank's Balanced Salt solution (HBSS; Gibco). The hippocampi and cortices were dissected out and pooled according to tissue-type. Tissue was trypsinized for fifteen minutes (1 mg/ml trypsin-HBSS; Worthington), rinsed with fresh HBSS, incubated in trypsin inhibitor (1 mg/ml; Sigma) for five minutes, rinsed again with fresh HBSS and then triturated in 1 ml fresh HBSS with a fire-polished glass pipette. Dissociated cells were seeded at 20,000 cells (Array Scan Assay) and 30,000 cells (MAP2-FITC assay)/well onto poly-D-lysine coated 96-well plates (Collaborative BioScience). Each well contained 100 μl of Eagle's Minimal Essential Media (MEM; Gibco) supplemented with 26 mM NaHCO3 (Sigma), 56 mM glucose (Sigma), 15 mM KCl (Sigma), 1 mM sodium pyruvate (Sigma), 1.1 mM L-glutamine (Sigma), 10% (v/v) heat-inactivated fetal bovine serum (Hyclone), and 0.001% gentamicin sulfate (Sigma) (pH 7.4). Cells were allowed to attach for twenty-four hours in a humidified 37° C. 5% CO2 incubator before experimental treatment. The culture media was aspirated and exchanged with fresh media every three days.
(§2) Twenty-four hours after plating, rat hippocampal cell cultures, prepared as in Example 1, were treated with vehicle (phosphate buffered saline+0.1% bovine serum albumin; Sigma), topiramate, EPO (rhEPO; 50 μM stock in 0.2 M citrate, 0.585 g/L NaCl diluted to appropriate concentrations in phosphate buffered saline+0.1% bovine serum albumin (BSA; Sigma)) or a combination of topiramate and EPO. On the third day in culture, the media was aspirated off and replaced with fresh media and test compound. At one week in culture, the cells were fixed with 10% phosphate-buffered formalin for fifteen minutes, then rinsed with phosphate buffered saline and placed in blocking serum for thirty minutes (horse serum; 1:50 dilution in phosphate buffered saline; Vector Labs). Cultures were rinsed again with phosphate buffered saline and then incubated in primary antibody for two hours (microtubule-associated protein-2 (MAP-2) is a selective marker for dendritic processes; anti-mouse monoclonal (Chemicon); 1:1000 dilution of MAP-2 in antibody diluent (Zymed)). Negative control wells were incubated in antibody diluent alone. Background signal was determined by blank wells (cell-free) incubated with or without antibody. Cultures were rinsed again with phosphate buffered saline and then placed in fluorescein-labeled secondary antibody for 1 hr (FITC; anti-mouse IgG; rat adsorbed; 1:50 dilution in DPBS; Vector Labs). Cultures were rinsed a final time with phosphate buffered saline. The plates were then read on a Cytofluor 4000 fluorescence plate reader. Neurite outgrowth was expressed as percent change from control (vehicle; mean fluorescence±SEM).
(§3) The ability of rhEPO, topiramate and the combination of rhEPO and topiramate to increase neurite outgrowth in rat hippocampal cultures was determined according to the procedure described above, with results as listed in Table 2. For each case or treatment, the measured value in the Table represents the mean percent change of eight experimental observations (from vehicle control). The abbreviation NT, as used in Table 2 represents a concentration not tested.

Rat Cortical Cultures [1] = assay: Array Scan Assay, Neurite Outgrowth (Neuron-specific); details: mean of eight observations
Excerpt: as §1
Twenty-four hours after plating, rat cerebral cortical cell cultures, prepared as described above, were treated with vehicle (phosphate buffered saline+0.1% bovine serum albumin; Sigma), topiramate, EPO (rhEPO; 50 μM stock in 0.2 M citrate, 0.585 g/L NaCl diluted to appropriate concentrations in phosphate buffered saline+0.1% bovine serum albumin (BSA; Sigma)) or a combination of topiramate and EPO. On the third day in culture, the media was aspirated off and replaced with fresh media and test compound.
Culture media (prepared as described above) was aspirated and replaced with formaldehyde/Hoechst solution (fix cells and stain nuclei). Cultures were incubated in this solution for twenty minutes, then washed with permeabilization/wash/antibody (PWA) buffer. The buffer solution was aspirated and 100 μl of primary antibody (rabbit polyclonal IgG; specific for an epitope present only in neurons and neurites) was added to each well. The cultures were incubated for 60 minutes, then washed with PWA buffer. The buffer solution was again aspirated and 100 μl of secondary antibody (Alexa Fluor 488 conjugated goat anti-rabbit IgG) was added to each well. The cultures were incubated for 60 minutes and then washed with PWA buffer, followed by phosphate buffered saline (PBS) solution.
100 μl PBS-CM were added to each well, the plates were sealed and fluorescence was read on the Array Scan II System. (All reagents for this measurement were provided by the neurite outgrowth hit kit # K07-0001-1, Cellomics Inc.) The Array Scan algorithm for neurite outgrowth calculates the neurite outgrowth index for each field per well. This number represents the number of neurons with neurites divided by the total number of neurons in the field.
The ability of rhEPO, topiramate (TPM) and the combination of rhEPO and topiramate to increase neurite outgrowth in rat cortical cell cultures was determined according to the procedure described above, with results as listed in Table 1. For each dosage concentration, the measured value in the Table represents the mean percent change of eight experimental observations (from vehicle control). The abbreviation NT, as used in the Table below represents a concentration not tested.

Rat Cortical Cultures [2] = assay: Neurite Outgrowth MAP2-FITC Assay for Rat Cortical Cells; details: one week in culture, mean of eight observations
Excerpt: as §1
as §2, with “cortical” for “hippocampal”, “one hour” for “1 hr”
as §3, with “cortical” for “hippocampal”, “3.” for “2.”, “3” for “2”

[3] = Concentration 1 pM (rhEPO concentration in combinations)
[4] = Concentration 10 pM (rhEPO concentration in combinations)
[5] = Concentration 1 fM (rhEPO concentration in combinations)
[6] = Concentration 10 fM (rhEPO concentration in combinations)
[7] = Concentration 100 fM (rhEPO concentration in combinations)

| Compound | Neurite outgrowth, mean percent change from vehicle control (Measured) (Rat Hippocampal Cultures; [3]) [%] | Neurite outgrowth, mean percent change from vehicle control (Measured) (Rat Hippocampal Cultures; [4]) [%] | Neurite outgrowth, mean percent change from vehicle control (Measured) (Rat Hippocampal Cultures; [5]) [%] | Neurite outgrowth, mean percent change from vehicle control (Measured) (Rat Hippocampal Cultures; [6]) [%] | Neurite outgrowth, mean percent change from vehicle control (Measured) (Rat Hippocampal Cultures; [7]) [%] | Neurite outgrowth, mean percent change from vehicle control (Measured) (Rat Cortical Cultures [1]; [3]) [%] | Neurite outgrowth, mean percent change from vehicle control (Measured) (Rat Cortical Cultures [1]; [4]) [%] | Neurite outgrowth, mean percent change from vehicle control (Measured) (Rat Cortical Cultures [1]; [5]) [%] | Neurite outgrowth, mean percent change from vehicle control (Measured) (Rat Cortical Cultures [1]; [6]) [%] | Neurite outgrowth, mean percent change from vehicle control (Measured) (Rat Cortical Cultures [1]; [7]) [%] | Neurite outgrowth, mean percent change from vehicle control (Measured) (Rat Cortical Cultures [2]; [3]) [%] | Neurite outgrowth, mean percent change from vehicle control (Measured) (Rat Cortical Cultures [2]; [4]) [%] | Neurite outgrowth, mean percent change from vehicle control (Measured) (Rat Cortical Cultures [2]; [5]) [%] | Neurite outgrowth, mean percent change from vehicle control (Measured) (Rat Cortical Cultures [2]; [6]) [%] | Neurite outgrowth, mean percent change from vehicle control (Measured) (Rat Cortical Cultures [2]; [7]) [%] | Neurite outgrowth, mean percent change from vehicle control (Measured) (Rat Hippocampal Cultures; Concentration 100 pM) [%] | Neurite outgrowth, mean percent change from vehicle control (Measured) (Rat Cortical Cultures [1]; Concentration 100 pM) [%] | Neurite outgrowth, mean percent change from vehicle control (Measured) (Rat Cortical Cultures [2]; Concentration 100 pM) [%] |
| --- | --- | --- | --- | --- | --- | --- | --- | --- | --- | --- | --- | --- | --- | --- | --- | --- | --- | --- |
| rhEPO: Recombinant human erythropoietin; amino acid sequence identical to that of human urinary erythropoietin | 20 | 21 | 21 | 15 | 12 | 9 | 11 | 29 | −1 | 28 | 19 | 24 | −14 | −2 | 10 | – | – | – |
| CC1(C)O[C@@H]2[C@@H](CO[C@@]3(COS(N)(=O)=O)OC(C)(C)O[C@@H]23)O1 [Topiramate, 2,3:4,5-bis-O-(1-methylethylidene)-β-D-fructopyranose sulfamate, reference compound] | 14 | 5 | – | – | 33 | 0 | 20 | – | – | 4 | 23 | 30 | – | – | 24 | −9 | 12 | 37 |
